pEC50, pIC50: −log10 of the molar value. Like-named read-outs stand apart in the source and are kept apart here.
What was measured:
[1] = Hepatocyte stability assay, mouse; assay type: in vitro ADME; details: mouse, hepatocytes; for hepatocyte CLint at 10 μM: Hepatocyte stability Clint; for half-life at 10 μM: Hepatocyte stability T½
Outline: (§1)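 Cells and buffer-only plates are preincubated 10 min at 37° C; 10 μM test compound is then added to hepatocytes (0.5×10^6 cells/mL) and sampled to 60 min. Aliquots are crashed into acetonitrile, spun, and measured by LC-MS/MS to calculate intrinsic clearance from the decline of parent.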

[2] = Hepatocyte stability assay, human; assay type: in vitro ADME; details: human, hepatocytes; for hepatocyte CLint at 10 μM: Hepatocyte stability Clint; for half-life at 10 μM: Hepatocyte stability T½
Outline: as §1

[3] = system: IL-1β cytokine output from THP-1s; assay: THP-1 AlphaLISA IL-1β cytokine inhibition assay; assay type: cell-based; details: for pIC50: Homo sapiens; for IL-1β lowering, result in words: THP-1 IL-1β assay
Outline: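 THP-1 cells differentiated with PMA for 72 h, pre-incubated with compound 30 min, then LPS-primed 24 h and Nigericin-stimulated 1 h (37° C./5% CO2). Supernatant IL-1β measured by AlphaLISA; percentage inhibition normalised to +LPS (high) and −LPS (low) plate controls.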

[4] = system: NRF2 (nuclear factor erythroid 2-related factor 2); assay: NRF2 +/-GSH activation assay (DiscoverX PathHunter NRF2 translocation kit, U2OS cells); assay type: cell-based
Outline: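 U2OS PathHunter eXpress cells, 24 h post-plating, treated with compound ±GSH (+GSH arm: 30 min compound–GSH pre-incubation, 6 mM working GSH), then 6 h at 37 °C. NRF2 nuclear translocation read by enzyme-fragment-complementation chemiluminescence; % activation normalised to DMF high and untreated low controls.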

[5] = THP-1, differentiated THP-1 cells, LPS then nigericin
[6] = +GSH, 30 minute compound-GSH pre-incubation, read-out: NRF2 activation +GSH EC50
[7] = +GSH, normalised to DMF high control
[8] = −GSH, U2OS PathHunter cells, 6 hours compound treatment, read-out: NRF2 activation −GSH EC50
[9] = −GSH, normalised to DMF high control

pIC50 ([3]; THP-1, Table 3, head to head comparison of exo vs endo double bond compounds)	pEC50 ([4]; −GSH, Table 5 exo vs endo comparison, read-out: −GSH EC50)	Compound	hepatocyte CLint at 10 μM [1] [µL/min/1e6 cells]	half-life at 10 μM [1] [min]	hepatocyte CLint at 10 μM [2] [µL/min/1e6 cells]	half-life at 10 μM [2] [min]	pIC50 [3, 5]	pEC50 [4, 6]	NRF2 activation +GSH Emax [4, 7] [%]	pEC50 [4, 8]	NRF2 activation −GSH Emax [4, 9] [%]	IL-1β lowering, result in words [3]	−GSH Emax ([4]; −GSH, normalised to DMF high control, Table 5 exo vs endo comparison) [%]
–	–	C=C(Cc1nc(C2(c3ccc(Cl)cc3)CCC2)no1)C(=O)O [Example 25, 2-((3-(1-(4-chlorophenyl)cyclobutyl)-1,2,4-oxadiazol-5-yl)methyl)acrylic acid]	17	90	12	104	4.19	< 4.00	31	< 4.00	32	–	–
–	–	C=C(Cc1nc(Cc2ccc(CCCCC)cc2)no1)C(=O)O [Example 28, 2-((3-(4-pentylbenzyl)-1,2,4-oxadiazol-5-yl)methyl)acrylic acid]	> 460	< 3	103	12	5.11	5.40	201	5.52	264	–	–
–	–	C=C(Cc1nc(CCCCCCC(C)(F)F)no1)C(=O)O [Example 31, 2-((3-(7,7-difluorooctyl)-1,2,4-oxadiazol-5-yl)methyl)acrylic acid]	42	27	5	246	< 4.00	4.39	127	4.46	178	not effective	–
–	–	[2H]C([2H])([2H])C([2H])([2H])C([2H])([2H])C([2H])([2H])C([2H])([2H])C([2H])([2H])C([2H])([2H])C([2H])([2H])c1noc(CC(=C)C(=O)O)n1 [Example 34, 2-((3-(octyl-d17)-1,2,4-oxadiazol-5-yl)methyl)acrylic acid]	374	4	78	18	5.02	5.33	167	5.43	222	–	–
–	–	C=C(Cc1nc(CCc2ccc(CCC)cc2)no1)C(=O)O [Example 36, 2-((3-(4-propylphenethyl)-1,2,4-oxadiazol-5-yl)methyl)acrylic acid]	249	7	23	61	4.43	4.85	181	5.00	216	–	–
–	–	C=C(Cc1nnc(CCCCCCCC)s1)C(=O)O [Example 37, 2-((5-octyl-1,3,4-thiadiazol-2-yl)methyl)acrylic acid]	> 481	< 3	32	40	4.84	5.02	139	5.08	162	–	–
–	–	C=C(Cc1nc(CCCCCCCC)co1)C(=O)O [Example 39, 2-((4-octyloxazol-2-yl)methyl)acrylic acid]	> 460	< 3	386	3	5.07	5.12	172	5.29	234	–	–
–	–	C=C(Cc1nc(Cc2ccc(C(F)(F)F)cc2)no1)C(=O)O [Example 42, 2-((3-(4-(trifluoromethyl)benzyl)-1,2,4-oxadiazol-5-yl)methyl)acrylic acid]	11	118	< 3	> 460	4.57	< 4.00	8	< 4.00	63	–	–
–	–	C=C(Cc1nc(C2(c3ccc(OC)cc3)CC2)no1)C(=O)O [Example 45, 2-((3-(1-(4-methoxyphenyl)cyclopropyl)-1,2,4-oxadiazol-5-yl)methyl)acrylic acid]	33	49	8	178	4.41	< 4.00	9	< 4.00	55	–	–
–	–	C=C(Cc1nc(Cc2ccc(OC(F)(F)F)cc2)no1)C(=O)O [Example 46, 2-((3-(4-(trifluoromethoxy)benzyl)-1,2,4-oxadiazol-5-yl)methyl)acrylic acid]	17	76	< 3	> 447	4.38	4.44	51	4.51	106	–	–
–	–	C=C(Cc1nc(C2(c3ccc(OC(F)(F)F)cc3)CC2)no1)C(=O)O [Example 49, 2-((3-(1-(4-(trifluoromethoxy)phenyl)cyclopropyl)-1,2,4-oxadiazol-5-yl)methyl)acrylic acid]	15	86	8	172	4.91	4.24	56	4.31	109	–	–
–	–	C=C(Cc1nc(C2CCCCCCC2)no1)C(=O)O [Example 63, 2-((3-cyclooctyl-1,2,4-oxadiazol-5-yl)methyl)acrylic acid]	23	60	8	169	< 4.00	4.24	49	4.59	114	not effective	–
–	–	C=C(Cc1nc(C(F)(F)c2ccc(OC(F)(F)F)cc2)no1)C(=O)O [Example 94, 2-((3-(difluoro(4-(trifluoromethoxy)phenyl)methyl)-1,2,4-oxadiazol-5-yl)methyl)acrylic acid]	29	66	< 3	> 460	4.69	4.86	183	5.10	208	–	–
–	–	C=C(Cc1nc(C2(c3cc(Cl)c(F)c(Cl)c3)CC2)no1)C(=O)O [Example 133, 2-((3-(1-(3,5-dichloro-4-fluorophenyl)cyclopropyl)-1,2,4-oxadiazol-5-yl)methyl)acrylic acid]	338	4	73	19	5.80	5.38	281	5.46	234	–	–
–	–	C=C(Cc1nc(-c2ccc(OCCCC(F)(F)F)cc2)no1)C(=O)O [Example 146, 2-((3-(4-(4,4,4-trifluorobutoxy)phenyl)-1,2,4-oxadiazol-5-yl)methyl)acrylic acid]	194	8	36	41	< 4.50	4.84	125	4.88	177	–	–
< 4.00	< 4.00	CCCCOc1ccc(-c2noc(/C=C(\C)C(=O)O)n2)cc1 [Example 167]	331	6	35	35	< 4.00	< 4.00	15	< 4.00	100	–	100

Source: patent publication US12617762B2, “Carboxy derivatives with antiinflamatory properties” (Sitryx Therapeutics Limited, priority 2019, dated 2026)
